According to publication PMC6979384, “Characterization of the plant homeodomain (PHD) reader family for their histone tail interactions” (Epigenetics & Chromatin, 2020):

Columns and labels:
Experiment in all cases: Histone peptide microarray
Assay type in all cases: binding, human
PHF8 = settings: GST-tagged PHF8; sheet Array Heatmap; each array performed twice, total n = 4
Method in brief: (§1)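 Binding of recombinant GST-fused PHD readers (0.5 μM) is detected on an array of 293 histone peptides, modified singly or in combination. An optimized array protocol is followed, and each intensity is the average of quadruplicate measurements with standard deviation.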

AIRE (PP) = settings: GST-tagged AIRE (PP); sheet Array Heatmap; each array performed twice, total n = 4
Method in brief: as §1

MLL5 = settings: GST-tagged MLL5; sheet Array Heatmap; each array performed twice, total n = 4
Method in brief: as §1

CHD4 (PPCC) = settings: GST-tagged CHD4 (PPCC = Dual PHD + Dual Chromodomain); sheet Array Heatmap; each array performed twice, total n = 4
Method in brief: as §1

CHD5 (PPCC) = settings: GST-tagged CHD5 (PPCC = Dual PHD + Dual Chromodomain); sheet Array Heatmap; each array performed twice, total n = 4
Method in brief: as §1

PHRF1 (RP) = settings: GST-tagged PHRF1 (RP); sheet Array Heatmap; each array performed twice, total n = 4
Method in brief: as §1

DIDO1 = settings: GST-tagged DIDO1; sheet Array Heatmap; each array performed twice, total n = 4
Method in brief: as §1

CHD5 (PCC) = settings: GST-tagged CHD5 (PCC = PHD + Dual Chromodomain); sheet Array Heatmap; each array performed twice, total n = 4
Method in brief: as §1

KDM4C (TTP) = settings: GST-tagged KDM4C (TTP = Tandem Tudor domain + PHD); sheet Array Heatmap; each array performed twice, total n = 4
Method in brief: as §1

BAZ2B = settings: GST-tagged BAZ2B; sheet Array Heatmap; each array performed twice, total n = 4
Method in brief: as §1

ING4 = settings: GST-tagged ING4; sheet Array Heatmap; each array performed twice, total n = 4
Method in brief: as §1

KDM5B (3) = settings: GST-tagged KDM5B (3); sheet Array Heatmap; each array performed twice, total n = 4
Method in brief: as §1

TRIM66 (PB) = settings: GST-tagged TRIM66 (PB = PHD + Bromodomain); sheet Array Heatmap; each array performed twice, total n = 4
Method in brief: as §1

KDM5A (3) = settings: GST-tagged KDM5A (3); sheet Array Heatmap; each array performed twice, total n = 4
Method in brief: as §1

KDM7A = settings: GST-tagged KDM7A; sheet Array Heatmap; each array performed twice, total n = 4
Method in brief: as §1

MORC3 (CW) = settings: GST-tagged MORC3 (CW = CW-type Zn-finger); sheet Array Heatmap; each array performed twice, total n = 4
Method in brief: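 Purified PHD finger domains fused to GST are screened against 293 synthetic histone peptides bearing one or several post-translational modifications. The protein is used at 0.5 μM, and the signal from four replicate arrays is averaged, with standard deviation given.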

ING3 = settings: GST-tagged ING3; sheet Array Heatmap; each array performed twice, total n = 4
Method in brief: as §1

DPF2 (PPC2W2) = settings: GST-tagged DPF2 (PPC2W2 = Dual PHD + C2W2-type Zn-finger); sheet Array Heatmap; each array performed twice, total n = 4
Method in brief: as §1

PHF23 = settings: GST-tagged PHF23; sheet Array Heatmap; each array performed twice, total n = 4
Method in brief: as §1

PHF13 = settings: GST-tagged PHF13; sheet Array Heatmap; each array performed twice, total n = 4
Method in brief: as §1

KDM5A (1) = settings: GST-tagged KDM5A (1); sheet Array Heatmap; each array performed twice, total n = 4
Method in brief: as §1

PHF2 = settings: GST-tagged PHF2; sheet Array Heatmap; each array performed twice, total n = 4
Method in brief: as §1

TAF3 = settings: GST-tagged TAF3; sheet Array Heatmap; each array performed twice, total n = 4
Method in brief: as §1

ING1 = settings: GST-tagged ING1; sheet Array Heatmap; each array performed twice, total n = 4
Method in brief: as §1

PHF21A = settings: GST-tagged PHF21A; sheet Array Heatmap; each array performed twice, total n = 4
Method in brief: as §1

BPTF (PB) = settings: GST-tagged BPTF (PB = PHD + Bromodomain); sheet Array Heatmap; each array performed twice, total n = 4
Method in brief: as §1

ING5 = settings: GST-tagged ING5; sheet Array Heatmap; each array performed twice, total n = 4
Method in brief: as §1

SP140L = settings: GST-tagged SP140L; sheet Array Heatmap; each array performed twice, total n = 4
Method in brief: as §1

ING2 = settings: GST-tagged ING2; sheet Array Heatmap; each array performed twice, total n = 4
Method in brief: as §1

RAG2 = settings: GST-tagged RAG2; sheet Array Heatmap; each array performed twice, total n = 4
Method in brief: as §1

KDM5B (1) = settings: GST-tagged KDM5B (1); sheet Array Heatmap; each array performed twice, total n = 4
Method in brief: as §1

H3K4me2 + K9ac + K18ac: H3 1-20
Array Heatmap signal (histone peptide microarray) (PHF8): 0.4748 | Array Heatmap signal (histone peptide microarray) (AIRE (PP)): 0.3953 | Array Heatmap signal (histone peptide microarray) (MLL5): 0.5921 | Array Heatmap signal (histone peptide microarray) (CHD4 (PPCC)): 0.5347 | Array Heatmap signal (histone peptide microarray) (CHD5 (PPCC)): 0.5253 | Array Heatmap signal (histone peptide microarray) (PHRF1 (RP)): 0.5931 | Array Heatmap signal (histone peptide microarray) (DIDO1): 0.8235 | Array Heatmap signal (histone peptide microarray) (CHD5 (PCC)): 0.7098 | Array Heatmap signal (histone peptide microarray) (KDM4C (TTP)): 0.4492 | Array Heatmap signal (histone peptide microarray) (BAZ2B): 0.4481 | Array Heatmap signal (histone peptide microarray) (ING4): 0.4671 | Array Heatmap signal (histone peptide microarray) (KDM5B (3)): 0.5774 | Array Heatmap signal (histone peptide microarray) (TRIM66 (PB)): 0.6398 | Array Heatmap signal (histone peptide microarray) (KDM5A (3)): 0.7199 | Array Heatmap signal (histone peptide microarray) (KDM7A): 0.3188 | Array Heatmap signal (histone peptide microarray) (MORC3 (CW)): 0.6581 | Array Heatmap signal (histone peptide microarray) (ING3): 0.5192 | Array Heatmap signal (histone peptide microarray) (DPF2 (PPC2W2)): 0.6346 | Array Heatmap signal (histone peptide microarray) (PHF23): 0.6826 | Array Heatmap signal (histone peptide microarray) (PHF13): 0.5893 | Array Heatmap signal (histone peptide microarray) (KDM5A (1)): 0.4202 | Array Heatmap signal (histone peptide microarray) (PHF2): 0.8135 | Array Heatmap signal (histone peptide microarray) (TAF3): 0.4004 | Array Heatmap signal (histone peptide microarray) (ING1): 0.6509 | Array Heatmap signal (histone peptide microarray) (PHF21A): 0.4382 | Array Heatmap signal (histone peptide microarray) (BPTF (PB)): 0.3833 | Array Heatmap signal (histone peptide microarray) (ING5): 0.3511 | Array Heatmap signal (histone peptide microarray) (SP140L): 0.3079 | Array Heatmap signal (histone peptide microarray) (ING2): 0.7129 | Array Heatmap signal (histone peptide microarray) (RAG2): 0.3927 | Array Heatmap signal (histone peptide microarray) (KDM5B (1)): 0.595
